According to PMC5823406, “Vehicle development, pharmacokinetics and toxicity of the anti-invasive agent 4-fluoro-3’,4’,5’-trimethoxychalcone in rodents” (PLoS ONE, 2018):
Like-named read-outs stand apart in the source and are kept apart here.

Assays:
[1] = Stability test of C16 in 10% Solutol HS-15 / 90% PEG 600; assay type: physicochemical
Procedure: Solutions of 30 mg/mL and 10 mg/mL of C16 were prepared and stored at room temperature and 4°C for 24 h. The stability of C16 was evaluated at 0, 1, 2, 4, 8 and 24 h after formulation by high-performance liquid chromatography-mass spectrometry/mass spectrometry (HPLC-MS/MS) (electrospray ionization, ESI+) analysis using oxybutynin as an internal standard (IS). Analyte samples were diluted 500x with acetonitrile (ACN)/H2O (20:80). This solution was further diluted 100x with an oxybutynin solution (1 ng/μL in ACN/H2O 20:80), giving a final concentration of 0.6 ng/μL and 0.2 ng/μL, respectively, for HPLC-MS/MS analysis (multiple reaction monitoring scan mode, MRM, see Section A of S1 File for more details). All analyses were performed in triplicates.
A.A. Vehicles for single-dose studies a. Stability test of C16 in 10% Solutol HS -15 / 90% PEG 600
Quantification was performed by calculating the ratio of the peak area (counts) of C16 and the IS. Results are expressed as relative differences to the peak ratio at 0 h (%RE, Table A).
Table A. Stability in 10% Solutol HS -15 / 90% PEG 600: peak ratios.
10mg/mL at room temperature
30mg/mL at room temperature
CV: Coefficient of variation; RE: Difference in peak area relative to indicated time point. […]

Aqueous solubility = assay type: physicochemical; conditions: test concentration 200 μM
Description: Table 3 In vitro physicochemical, stability and metabolism data. | column: Value

Whole blood stability = assay type: in vitro ADME, rat; conditions: for half-life at 1 μM: male, Sprague-Dawley, rat
Procedure: C16 (1 μM) or vehicle (DMSO) were incubated with fresh rat blood (Sprague Dawley, male) at 37°C at 5 time points in duplicate over a 120-min period. The final DMSO concentration in the incubation was 0.25%. Reactions were terminated following 0, 15, 30, 60 and 120 min by acetonitrile containing internal standard. The sampling plate was centrifuged (3000 rpm, 45 min, 4 °C) and the supernatants from each time point analyzed for parent compound by HPLC-MS/MS. The percentage of parent compound remaining at each time point relative to the 0-min sample was then calculated from HPLC-MS/MS peak area ratios (compound peak area/internal standard peak area).
C. Stability and metabolism
For details on ADME experiments not included underneath , please consult ref. [1].
C.A. Whole blood stability
Column: Kinetex XB-C18 column, 2.6 µm (150 x2.1 mm)
Mobile phase A: H2O + 0.1% v/v Formic Acid
Mobile phase B: MeCN + 0.1% v/v Formic Acid
Autosampler syringe volume: 100 µL
Weak wash: MeOH:H2O 1:9 v/v
Strong wash: MeOH:H2O 95:5 v/v
Table K. Gradient program.
Mass spectrometric conditions
Model: AB Sciex API5500 QTrap
Mode: Multiple ion monitoring (MIM)
Table L. MIM (parent to parent transitions).
The areas and percentages for the parent and metabolites have been calculated using MIM data where parent to parent transitions have been used, and assume that each metabolite has the same point of ionisation and the sensitivity of the metabolite has not been affected by the biotransformation.

ICR mice = assay: Single-dose IP MTD study; assay type: in vivo; conditions: for Necropsy: gross findings: 24 h post dosing; for Weigt decrease (%): over 24 h
Procedure: Male ICR mice (20–26 g), were obtained from BioLASCO Taiwan. Animals were kept in conventional cages with wood chip bedding. Space allocation for 3–5 animals was 30 x 19 x 13 cm. All animals were healthy at the start of the trial and maintained in a well-controlled temperature (20–24°C) and humidity (30%-70%) environment with 12 h light/dark cycles. Free access to a standard lab diet [MFG (Oriental Yeast Co., Ltd., Japan)] and autoclaved tap water were granted.
A single PO and IP dose progression test was conducted in which animals were dosed at a minimum of 72- or 24-h intervals, respectively. C16 (vehicle: 10% Solutol HS-15 / 90% PEG 600) was administered by oral gavage at 10 mL/kg to randomly assigned groups of 2 male and 2 female mice, or by IP injection at 5 mL/kg to randomly assigned groups of 5 male mice. Animals received an initial dose of 10 mg/kg. If 50% of the animals survived for 72 h (PO) or 30 min (IP), the dose for the next cohort was increased. If one or more animals died, the dose for the next cohort was decreased. The next dose level was determined by the decision scheme in Fig 2.
Body weights were recorded before dosing and at the 72- (PO) or 24-h (IP) time point. Gross necropsy was performed in all animals without tissue collection.
C16 was administered IP at an initial dose of 10 mg/kg to a group of 5 ICR derived male mice weighing 22±2 g. The animals were then observed for presence of acute toxic symptoms and autonomic effects during the first 30 min and after 1 h, 2 h, 6 h and 24 h (Table S-Table U). The next dose level was determined based on whether more than 50% animals died within 30 min after dosing. Gross necropsy was performed in all animals without tissue collection .
Table S. Body weights, evolution over 24 h, IP MTD study.
Compound Dose Animal Body weight (g)
Table T. Food consumption over 24 h, IP MTD study.
Compound Dose Animal Food consumption (g)

## COc1cc(C(=O)/C=C/c2ccc(F)cc2)cc(OC)c1OC [C16, 4-fluoro-3’,4’,5’-trimethoxychalcone]
[1]; 10mg/mL at 4 °C, 1 h
  %RE to 0 h (peak ratio C16/IS): 1.2%
[1]; 10mg/mL at 4 °C, 2 h
  %RE to 0 h (peak ratio C16/IS): -2.9%
[1]; 10mg/mL at 4 °C, 4 h
  %RE to 0 h (peak ratio C16/IS): 1.4%
[1]; 10mg/mL at 4 °C, 8 h
  %RE to 0 h (peak ratio C16/IS): -0.6%
[1]; 10mg/mL at 4 °C, 24 h
  %RE to 0 h (peak ratio C16/IS): -1.4%
[1]; 10mg/mL at room temperature, 1 h
  %RE to 0 h (peak ratio C16/IS): 1.8%
[1]; 10mg/mL at room temperature, 2 h
  %RE to 0 h (peak ratio C16/IS): 1.8%
[1]; 10mg/mL at room temperature, 4 h
  %RE to 0 h (peak ratio C16/IS): -1.0%
[1]; 10mg/mL at room temperature, 8 h
  %RE to 0 h (peak ratio C16/IS): 1.4%
[1]; 10mg/mL at room temperature, 24 h
  %RE to 0 h (peak ratio C16/IS): 2.9%
[1]; 30mg/mL at 4°C, 1 h
  %RE to 0 h (peak ratio C16/IS): 4.8%
[1]; 30mg/mL at 4°C, 2 h
  %RE to 0 h (peak ratio C16/IS): -6.1%
[1]; 30mg/mL at 4°C, 4 h
  %RE to 0 h (peak ratio C16/IS): 3.5%
[1]; 30mg/mL at 4°C, 8 h
  %RE to 0 h (peak ratio C16/IS): 5.0%
[1]; 30mg/mL at 4°C, 24 h
  %RE to 0 h (peak ratio C16/IS): 1.6%
[1]; 30mg/mL at room temperature, 1 h
  %RE to 0 h (peak ratio C16/IS): -0.6%
[1]; 30mg/mL at room temperature, 2 h
  %RE to 0 h (peak ratio C16/IS): 0.2%
[1]; 30mg/mL at room temperature, 4 h
  %RE to 0 h (peak ratio C16/IS): -3.1%
[1]; 30mg/mL at room temperature, 8 h
  %RE to 0 h (peak ratio C16/IS): -5.4%
[1]; 30mg/mL at room temperature, 24 h
  %RE to 0 h (peak ratio C16/IS): 0.3%
[1]; 10 and 30 mg/mL, room temperature (20–25 °C) and 4°C over 24 h
  Stability of solutions in 10% Solutol HS-15 / 90% PEG 600: stable
Aqueous solubility; PBS, pH 7.4
  Aqueous solubility: 7.9 µM
Aqueous solubility; simulated gastric fluid
  Aqueous solubility: 9.1 µM
Aqueous solubility; simulated intestinal fluid
  Aqueous solubility: 2.4 µM
Whole blood stability; fresh whole blood, male Sprague-Dawley rat blood, 15 min, read-out: Compound remaining (% of 0 min)
  remaining at 15 min, 1 µM: 16.5%
Whole blood stability; fresh whole blood, male Sprague-Dawley rat blood, 30 min, read-out: Compound remaining (% of 0 min)
  remaining at 30 min, 1 µM: 13.8%
Whole blood stability; fresh whole blood, male Sprague-Dawley rat blood, 60 min, read-out: Compound remaining (% of 0 min)
  remaining at 60 min, 1 µM: 10.6%
Whole blood stability; fresh whole blood, male Sprague-Dawley rat blood, 120 min, read-out: Compound remaining (% of 0 min)
  remaining at 120 min, 1 µM: 7%
Whole blood stability; male Sprague-Dawley rat blood, Both Isomers integrated
  Intrinsic clearance: 120 µL/min/mL blood
Whole blood stability; fresh whole blood, blood (rat, Sprague-Dawley), 1 μM, read-out: Half-life
  half-life at 1 μM: 6 min
Whole blood stability; fresh whole blood, male Sprague-Dawley rat blood, Both Isomers integrated, read-out: t1/2
  half-life at 1 μM: 5.76 min
Whole blood stability; fresh whole blood, male Sprague-Dawley rat blood, E-isomer only, read-out: t1/2
  half-life at 1 μM: 8.06 min
ICR mice; IP 10 mg/kg
  Deaths: 0/5
  Necropsy: gross findings: none
  Weigt decrease (%): 2.4%
ICR mice; IP 10 mg/kg, first 30 min
  Autonomic: Hunch back: 3/5
  Autonomic: Low body temperature: 0/5
  Behavioral: Irritability: vocalization: 0/5
  Behavioral: Pinna: 0/5
  Neurologic: Low limb post: 0/5
  Neurologic: Tremor: twitches: 2/5
ICR mice; IP 30 mg/kg
  Deaths: 0/5
  Necropsy: gross findings: none
  Weigt decrease (%): 4.8%
ICR mice; IP 30 mg/kg, first 30 min
  Autonomic: Hunch back: 5/5
  Autonomic: Low body temperature: 0/5
  Neurologic: Tremor: twitches: 2/5
ICR mice; IP 50 mg/kg
  Deaths: 0/5
  Necropsy: gross findings: none
  Weigt decrease (%): 8.7%
ICR mice; IP 50 mg/kg, first 30 min
  Autonomic: Hunch back: 5/5
  Neurologic: Tremor: twitches: 3/5
ICR mice; male, ICR, mouse, in vivo, ip, 24 h
  tolerated dose, single-dose IP administration: up to 50 mg/kg
